Laboratory results taken from publication PMC5760624, “Microbiota derived short chain fatty acids promote histone crotonylation in the colon through histone deacetylases” (Nature Communications, 2018).

Key:
HDAC1 [1] = target: T1, HDAC1 (Homo sapiens, UniProt Q13547); assay: in vitro histone decrotonylation/deacetylation assay with recombinant HDAC1; also used by HDAC1 to crotonylate histones at […] or higher; format: biochemical
HDAC1 [2] = target: T1, HDAC1; assay: in vitro histone decrotonylation/deacetylation assay with recombinant HDAC1, western blot readout; format: biochemical

T1 sequence (Q13547 whole entry): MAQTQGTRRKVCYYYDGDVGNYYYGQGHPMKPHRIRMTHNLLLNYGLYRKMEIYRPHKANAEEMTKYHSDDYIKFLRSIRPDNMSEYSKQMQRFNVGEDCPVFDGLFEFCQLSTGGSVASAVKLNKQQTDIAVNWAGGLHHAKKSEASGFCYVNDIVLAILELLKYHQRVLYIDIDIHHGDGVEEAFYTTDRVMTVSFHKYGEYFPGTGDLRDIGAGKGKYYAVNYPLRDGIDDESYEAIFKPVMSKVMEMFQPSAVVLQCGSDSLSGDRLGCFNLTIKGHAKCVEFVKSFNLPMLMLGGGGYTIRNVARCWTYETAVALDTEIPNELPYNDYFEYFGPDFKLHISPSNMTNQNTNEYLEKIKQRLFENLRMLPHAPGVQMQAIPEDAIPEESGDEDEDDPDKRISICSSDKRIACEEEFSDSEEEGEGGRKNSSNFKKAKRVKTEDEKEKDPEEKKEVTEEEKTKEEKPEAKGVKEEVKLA

SMILES | in vitro histone decrotonylation/deacetylation assay with recombinant HDAC1; als (HDAC1 [1]) | in vitro histone decrotonylation/deacetylation assay with recombinant HDAC1, wes (HDAC1 [2])
CC=CC(=O)O [crotonate] | We also found that crotonate inhibited decrotonylation and deacetylation in vitro (Fig. 7c). | 
CCCC(=O)O [butyrate] |  | In vitro, HDAC inhibitors TSA and butyrate reduced decrotonylation by HDAC1 significantly
